PMC11477289, “Low-Basicity 5-HT6 Receptor Ligands from the Group of Cyclic Arylguanidine Derivatives and Their Antiproliferative Activity Evaluation” (International Journal of Molecular Sciences, 2024)
In brackets after ≈: the same amount, converted by molar mass.

Columns and labels:
[1] = target: T1, human 5-HT6 (Homo sapiens, UniProt P50406); assay: [3H]-LSD radioligand binding assay, 5-HT6R; details: HEK293 expressing human 5-HT6R, read-out: 5-HT6 Ki
T1 construct: expressed in transfected cells
Method: Next, the ligands’ affinity for the 5-HT6 receptors was evaluated in the [^3H]-LSD radioligand binding assay. Experiments were performed in a stable HEK293 cell line expressing the human 5-HT6R.
The pellets were stored at −80 °C.

[2] = Fish embryo toxicity (FET) test, OECD 236; details: zebrafish (Danio rerio), in vivo, after 96 h of intoxication
Method: To determine the toxicity of the compounds [66], the fish embryo toxicity (FET) test was performed on zebrafish (Danio rerio) according to OECD Test 236. The collected embryos were transferred to a Petri dish with an E3 medium, consisting of 5 mM NaCl; 0.33 mM MgCl2; 0.33 mM CaCl2; and 0.17 mM KCl, and placed in 6-well plates, 10 embryos per well. Stock solutions were prepared in DMSO. The range of different concentrations of the solutions was prepared by dissolving stock solutions in the E3 medium each time directly before addition to the wells. The solutions were changed once daily, and the embryos were maintained in the incubator at 28.5 °C. At the end of the exposure period (96 hpf—hours postfertilization), acute toxicity was determined based on a positive outcome in any of the four visual indicators of lethality, including the coagulation of fertilized eggs, lack of somite formation, lack of detachment of the tailbud from the yolk sac, and lack of heartbeat. The value of LD50 was calculated. Heartbeats were recorded to observe cardiotoxic effects. A dose–response curve was generated using Prism 8.0.1 (GraphPad Software).
Figure 3 (A) Toxicity of PR 68 and PR 73 in vivo in Danio reiro embryo toxicity test. […] Cardiotoxicity of (B) PR 68 and (C) PR 73 measured as heart rate (beats per minute) on 5 dpf Danio rerio larvae, E3—fish embryo growth medium. […]

[3] = system: Danio rerio; details: in vivo
Method: Selected compounds were evaluated for their cardiotoxicity on the Danio rerio experimental model following the OECD 236 test. […] To explore specific toxic effects of tested compounds on the central nervous systems, locomotor activity in the Danio rerio experimental model was evaluated. Studying the reaction of zebrafish larvae to light and dark conditions can be a valuable method for assessing neurotoxicity in behavioral studies. […] This response is characterized by a rapid, coordinated movement, often involving a quick burst of swimming or a change in direction. In our experimental model, we changed light into dark conditions. […] This behavior helps them avoid potential predators and maintain optimal environmental conditions.
To determine the toxicity of the compounds [66], the fish embryo toxicity (FET) test was performed on zebrafish (Danio rerio) according to OECD Test 236. […] At the end of the exposure period (96 hpf—hours postfertilization), acute toxicity was determined based on a positive outcome in any of the four visual indicators of lethality, including the coagulation of fertilized eggs, lack of somite formation, lack of detachment of the tailbud from the yolk sac, and lack of heartbeat. The value of LD50 was calculated. Heartbeats were recorded to observe cardiotoxic effects. […]

[4] = system: astrocyte cell line PG-4; assay: Activity on normal astrocytes (MTS), PG-4; details: Felis catus, 72 h, read-out: IC50 Values PG-4
[5] = PAMPA permeability test; type: in vitro ADME
Method: This test allows the determination of the compound’s passive diffusion through biological membranes.
Precoated PAMPA Plate System Gentest was obtained from Corning (Tewksbury, MA, USA). Test compounds and caffeine solutions (200 µM) were prepared in a PBS buffer (pH = 7.4) and then added to the PAMPA plate. The plate was incubated at room temperature for 5 h without agitation. Then, 150 µL was aspirated from both acceptor (A) and donor (D) wells and then diluted with a 150 µL internal standard (IS) solution. The concentrations of the tested compounds in wells A and D were estimated using an LC/MS Waters ACQUITY™ TQD system with a TQ detector (Waters, Milford, CT, USA). The values of Pe were estimated according to the exact formulas provided by Corning and previously described in the literature.
4. Absorption – PAMPA permeability test
*Permeability coefficient. Compound is permeable if Pe≥1.5×10-6 cm/s
**CFN = caffeine, well-permeable control
UPLC of Caffeine solution in PBS (pH=7.4) after 5h of incubation: acceptor well
(above), donor well (below). IS – internal standard.
UPLC of PR 68 solution in PBS (pH=7.4) after 5h of incubation: acceptor well (above),
donor well (below). IS – internal standard. […]

[6] = system: HepG2 human hepatoma cell line; assay: Hepatotoxicity, MTS assay; type: cell-based; details: 1–10 µM, 48 h
Method: The safety profile was estimated in the hepatotoxicity assay in the hepatoma HepG2 cell line (Figure 2B).
Hepatotoxicity was evaluated employing an MTS assay with a HepG2 human hepatoma cell line (ATCC: HB-8065). In brief, the cells were incubated for 48 h in 96-well plates with PR 68 (concentration range: 1–100 μM), or doxorubicin (DX, 1 µM; Sigma-Aldrich), which served as a control. Compounds were tested in a single experiment in quadruplicate. The absorbance in the MTS assay was measured by the Spark Cyto microplate reader (Tecan, Männedorf, Switzerland).

[7] = target: 5-HT5A receptor (Homo sapiens, UniProt P47898); assay: [3H]-LSD radioligand binding assay, 5-HT5A
[8] = system: HSA and AGP (24:1); assay: Plasma protein binding, TRANSIL XL PPB assay; details: human, TRANSIL XL PPB assay: HSA and AGP in a 24:1 ratio

T1 sequence (P50406 whole entry): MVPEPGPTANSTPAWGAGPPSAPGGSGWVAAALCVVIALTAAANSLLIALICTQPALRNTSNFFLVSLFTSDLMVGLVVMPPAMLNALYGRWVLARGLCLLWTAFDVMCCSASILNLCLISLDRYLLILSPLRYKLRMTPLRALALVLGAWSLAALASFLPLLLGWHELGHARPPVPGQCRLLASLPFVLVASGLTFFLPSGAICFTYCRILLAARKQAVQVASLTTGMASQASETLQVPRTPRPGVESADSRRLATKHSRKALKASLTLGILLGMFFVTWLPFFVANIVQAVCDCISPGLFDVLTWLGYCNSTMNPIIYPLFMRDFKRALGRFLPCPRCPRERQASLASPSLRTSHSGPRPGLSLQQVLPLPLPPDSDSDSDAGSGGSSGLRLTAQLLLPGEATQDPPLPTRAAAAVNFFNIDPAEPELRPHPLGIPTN
5-HT5A receptor, sequence (P47898 whole entry): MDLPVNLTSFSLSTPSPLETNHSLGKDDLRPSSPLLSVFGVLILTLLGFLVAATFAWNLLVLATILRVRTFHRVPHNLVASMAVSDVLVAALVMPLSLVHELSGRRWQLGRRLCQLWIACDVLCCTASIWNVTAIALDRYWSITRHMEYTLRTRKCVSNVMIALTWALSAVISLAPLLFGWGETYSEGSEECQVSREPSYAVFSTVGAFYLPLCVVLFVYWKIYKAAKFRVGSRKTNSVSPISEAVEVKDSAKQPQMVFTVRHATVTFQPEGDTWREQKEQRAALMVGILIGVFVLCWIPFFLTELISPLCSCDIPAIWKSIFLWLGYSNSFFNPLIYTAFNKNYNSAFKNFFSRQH

In the case of `CC1NC(NS(=O)(=O)c2cccc3ccccc23)=Nc2cccc(F)c21` (stereo not drawn) [PR 73, N -(5-fluoro-4-methyl-3,4-dihydroquinazolin-2-yl)naphthalene-1-sulfonamide], the Ki [1] is reported as 43 ± 11 nM, the LC50 at 96 h [2] is reported as 10.2 µg/mL (≈ 27.5 µM) and the “cardiotoxicity (heart rate)” value [3] is reported as “do not show cardiotoxic properties”. For the same compound, the IC50 [4] was > 25000 nM.
With `CC1NC(NS(=O)(=O)c2cccc3ccccc23)=Nc2cccc(Cl)c21` (stereo not drawn) [PR 68, N -(5-chloro-4-methyl-3,4-dihydroquinazolin-2-yl)naphthalene-1-sulfonamide] the Ki [1] was 37 ± 8 nM, the “membrane retention R” value ([5]; PAMPA) was 0.65 and the Papp at 5 h, 200 µM ([5]; PAMPA, PBS pH 7.4, 5 h, room temperature, read-out: PAMPA Pe) was 1.72 ×10⁻⁶ cm/s. For the same compound, the “PAMPA Pe” value ([5]; PBS pH 7.4, 5 h, room temperature) was 1.72 10^−6 cm/s, the “hepatotoxicity, HepG2 viability” value [6] was “did not exhibit hepatotoxic properties” and the LC50 at 96 h [2] was 7.82 µg/mL (≈ 20.3 µM). The “cardiotoxicity (heart rate)” value [3] was “do not show cardiotoxic properties”, the IC50 [4] was > 25000 nM and the Ki [7] was 1110 nM. The Kd at 12 min, 20 µM [8] was 1400 nM and the fraction unbound at 12 min, 20 µM [8] was 0.002.
